Results as given in patent US20200288710A1, “SUBSTITUTED SULPHONAMIDES FOR CONTROLLING ANIMAL PESTS” (BAYER CROPSCIENCE AKTIENGESELLSCHAFT, priority 2016, published 2020).

Test system: Myzus persicae
Test: Myzus persicae spray test (Chinese cabbage leaf discs)
Assay type: in vivo
Settings: foliar, 120 h, 500 g/ha, after 5-6 days, read-out: efficacy
Protocol: Myzus persicae—Spray Test Solvent: 78 parts by weight of acetone • • 1.5 parts by weight of dimethylformamide Emulsifier: alkylaryl polyglycol ether To produce a suitable preparation of active compound, 1 part by weight of active compound is dissolved using the specified parts by weight of solvent and made up with water containing an emulsifier concentration of 1000 ppm until the desired concentration is attained. To produce further test concentrations, the formulation is diluted with emulsifier-containing water. Discs of Chinese cabbage leaves (Brassica pekinensis) infested by all stages of the green peach aphid (Myzus persicae) are sprayed with an active compound preparation of the desired concentration. After 5-6 days, the efficacy in % is determined. 100% means that all the aphids have been killed; 0% means that no aphids have been killed.

Row | Compound | pest or weed control at 500 g/ha
1 | COc1ccc(OC)c(S(=O)(=O)NC(=O)c2cn(C)c(-c3ncccc3F)n2)c1 [Example 608] | 100%
2 | CN(C)S(=O)(=O)NC(=O)c1cn(C)c(-c2ccccc2Cl)n1 [Example 204] | 100%
3 | Cn1cc(C(=O)NS(=O)(=O)c2cc(Cl)cc(Cl)c2)nc1-c1ccccc1Cl [Example 166] | 90%
4 | Cn1cc(C(=O)NS(=O)(=O)c2cc(C(F)(F)F)ccc2C(F)(F)F)nc1-c1c(F)cccc1F [Example 400] | 90%
5 | Cc1ccccc1S(=O)(=O)NC(=O)c1cn(C)c(-c2cccnc2)n1 [Example 488] | 90%
6 | CCOc1ccccc1S(=O)(=O)NC(=O)c1cn(C)c(-c2c(F)cccc2Cl)n1 [Example 154] | 90%
7 | CCc1[nH]c(-c2cc(F)cc(F)c2)nc1C(=O)NS(=O)(=O)C(C)C [Example 127] | 90%
8 | COc1ccc(Cl)c(S(=O)(=O)NC(=O)c2cnc(-c3cc(Cl)cc(Cl)c3)[nH]2)c1 [Example 224] | 90%
9 | Cn1cc(C(=O)NS(=O)(=O)c2ccccc2C(F)(F)F)nc1-c1c(F)cc(F)cc1F [Example 5] | 90%
10 | Cc1ccccc1S(=O)(=O)NC(=O)c1cn(C)c(-c2ccccn2)n1 [Example 493] | 100%
11 | CCS(=O)(=O)NC(=O)c1cn(C)c(-c2ccccc2C)n1 [Example 89] | 90%
12 | CCc1[nH]c(-c2ccccc2Cl)nc1C(=O)NS(=O)(=O)C(C)C [Example 121] | 90%
13 | CCc1ccc(OC)c(S(=O)(=O)NC(=O)c2cn(C)c(-c3c(F)cccc3F)n2)c1 [Example 391] | 90%
14 | COc1ccccc1S(=O)(=O)NC(=O)c1cn(C)c(-c2cc(F)ccc2F)n1 [Example 526] | 90%
15 | CCc1[nH]c(-c2cccc(OC)c2)nc1C(=O)NS(=O)(=O)c1ccccc1Cl [Example 122] | 90%
16 | Cc1ccccc1S(=O)(=O)NC(=O)c1cn(C)c(-c2ccccc2OC(F)(F)F)n1 [Example 458] | 90%
17 | Cn1cc(C(=O)NS(=O)(=O)CC(F)(F)F)nc1-c1c(F)cccc1F [Example 84] | 100%
18 | CCS(=O)(=O)NC(=O)c1cn(C)c(-c2c(F)cccc2F)n1 [Example 86] | 100%
19 | COc1cccc(C(F)(F)F)c1S(=O)(=O)NC(=O)c1cn(C)c(-c2c(F)cccc2F)n1 [Example 374] | 100%
20 | Cn1cc(C(=O)NS(=O)(=O)c2c(F)cccc2F)nc1-c1c(Cl)cccc1Cl [Example 24] | 90%
21 | Cc1[nH]c(C(=O)NS(=O)(=O)c2ccccc2Cl)nc1-c1c(F)cccc1F [Example 145] | 90%
22 | CS(=O)(=O)NC(=O)c1cn(-c2cccc(Cl)c2)c(-c2ccccc2Cl)n1 [Example 72] | 90%
23 | Cn1cc(C(=O)NS(=O)(=O)CC(F)(F)F)nc1-c1c(Cl)cccc1Cl [Example 80] | 90%
24 | COc1ccc(Cl)c(S(=O)(=O)NC(=O)c2cnc(-c3c(F)cccc3F)n2C)c1 [Example 160] | 90%
25 | Cn1cc(C(=O)NS(=O)(=O)c2cccc(C#N)c2)nc1-c1ccccc1Cl [Example 167] | 90%
26 | Cn1cc(C(=O)NS(=O)(=O)c2ccc(C#N)cc2)nc1-c1ccccc1Cl [Example 168] | 90%
27 | Cn1cc(C(=O)NS(=O)(=O)c2cccs2)nc1-c1c(F)cccc1F [Example 349] | 100%
28 | Cn1cc(C(=O)NS(=O)(=O)c2cc(F)ccc2F)nc1-c1c(F)cccc1F [Example 455] | 90%
29 | Cn1cc(C(=O)NS(C)(=O)=O)nc1-c1c(Cl)cccc1Cl [Example 83] | 90%
30 | Cn1cc(C(=O)NS(=O)(=O)c2ccccc2)nc1-c1ccccc1Cl [Example 229] | 100%

Test system: Myzus persicae
Test: Myzus persicae oral test
Assay type: in vivo
Settings: 120 h, 20 ppm, oral uptake, after 5 days, read-out: efficacy
Protocol: Myzus persicae—Oral Test Solvent: 100 parts by weight of acetone To produce a suitable preparation of active compound, 1 part by weight of active compound is dissolved using the specified parts by weight of solvent and made up with water until the desired concentration is attained. 50 μl of the active compound preparation are transferred into microtitre plates and made up to a final volume of 200 μl with 150 μl of IPL41 insect medium (33%+15% sugar). Subsequently, the plates are sealed with parafilm, which a mixed population of green peach aphids (Myzus persicae) within a second microtitre plate is able to puncture and imbibe the solution through it. After 5 days, the efficacy in % is determined. 100% means that all the aphids have been killed; 0% means that no aphids have been killed.

Row | Compound | pest or weed control at 20 ppm
31 | CCc1[nH]c(-c2cccc(Cl)c2)nc1C(=O)NS(=O)(=O)C(C)C [Example 131] | 90%
32 | COc1ccc(Cl)c(S(=O)(=O)NC(=O)c2nc(-c3ccccc3Cl)c(C)[nH]2)c1 [Example 201] | 100%
33 | Cc1[nH]c(-c2cccc(Cl)c2)nc1C(=O)NS(=O)(=O)C(C)C [Example 236] | 90%
34 | Cn1cc(C(=O)NS(=O)(=O)c2cnc(Cl)s2)nc1-c1c(F)cccc1F [Example 345] | 90%
35 | CCc1[nH]c(-c2cccc(C(F)(F)F)c2)nc1C(=O)NS(=O)(=O)C(C)C [Example 248] | 100%
36 | COc1ccc(OC)c(S(=O)(=O)NC(=O)c2cn(C)c(-c3ccccc3S(C)(=O)=O)n2)c1 [Example 509] | 100%
37 | COc1ccc(Cl)c(S(=O)(=O)NC(=O)c2nc(-c3c(F)cccc3F)[nH]c2C)c1 [Example 191] | 90%
38 | CCc1[nH]c(-c2cccc(C(F)(F)F)c2)nc1C(=O)NS(=O)(=O)c1ccccc1Cl [Example 247] | 100%
39 | CCCOc1ccc(Cl)c(S(=O)(=O)NC(=O)c2cn(C)c(-c3c(F)cccc3F)n2)c1 [Example 180] | 100%
40 | Cc1cccc(OS(C)(=O)=O)c1S(=O)(=O)NC(=O)c1cn(C)c(-c2c(F)cccc2F)n1 [Example 368] | 90%
41 | CSc1ccccc1-c1nc(C(=O)NS(=O)(=O)c2ccccc2C)cn1C [Example 214] | 100%
42 | CC(C)c1cccc(-c2nc(C(=O)NS(=O)(=O)c3ccccc3Cl)c(C(C)C)[nH]2)c1 [Example 612] | 100%
43 | Cc1[nH]c(-c2cccc(C(C)C)c2)nc1C(=O)NS(=O)(=O)C(C)C [Example 620] | 90%
44 | CCc1[nH]c(-c2ccc(F)cc2F)nc1C(=O)NS(=O)(=O)c1ccccc1C [Example 245] | 100%
45 | Cc1[nH]c(C(=O)NS(=O)(=O)c2ccccc2Cl)nc1-c1ccccc1Cl [Example 418] | 90%
46 | COc1ccccc1S(=O)(=O)NC(=O)c1cn(C)c(-c2csc3ccccc23)n1 [Example 531] | 90%
47 | CCc1[nH]c(-c2ccc(Cl)cc2)nc1C(=O)NS(=O)(=O)C(C)C [Example 601] | 90%
48 | CCc1[nH]c(-c2cccc(Br)c2)nc1C(=O)NS(=O)(=O)c1ccccc1Cl [Example 136] | 90%
49 | Cn1cc(C(=O)NS(=O)(=O)c2cc(C#N)ccc2Cl)nc1-c1c(F)cccc1F [Example 452] | 100%

Row | Compound | pest or weed control at 20 ppm
50 | O=C(NS(=O)(=O)c1ccccc1Cl)c1c[nH]c(-c2c(F)cccc2F)n1 [Example 412] | 90%
51 | COc1ccc(Cl)c(S(=O)(=O)NC(=O)c2nc(-c3ccc(Cl)c(Cl)c3)[nH]c2C)c1 [Example 615] | 100%
52 | Cc1ccccc1S(=O)(=O)NC(=O)c1cnc(-c2c(F)cccc2F)n1C [Example 163] | 100%
53 | Cn1cc(C(=O)NS(=O)(=O)c2ccccc2N)nc1-c1ccccc1Cl [Example 132] | 100%
54 | CCc1[nH]c(-c2c(C)cccc2C)nc1C(=O)NS(=O)(=O)c1ccccc1Cl [Example 208] | 90%
55 | CCc1c(C(=O)NS(=O)(=O)c2ccccc2Br)nc(-c2c(F)cccc2F)n1C [Example 198] | 100%
56 | Cc1ccc(F)cc1S(=O)(=O)NC(=O)c1cc(C)n(-c2cccc(Cl)c2Cl)n1 [Example 305] | 90%
57 | Cc1nn(C)c(Cl)c1S(=O)(=O)NC(=O)c1cn(C)c(-c2c(F)cccc2F)n1 [Example 348] | 100%
58 | CSc1ccccc1-c1nc(C(=O)NS(=O)(=O)c2ccccc2Cl)cn1C [Example 213] | 100%
59 | Cc1[nH]c(-c2cccc(C(C)C)c2)nc1C(=O)NS(=O)(=O)c1ccccc1Cl [Example 617] | 100%
60 | COc1ccccc1S(=O)(=O)NC(=O)c1cn(C)c(-c2ccccc2SC)n1 [Example 215] | 90%
61 | CCc1[nH]c(-c2cccc(Cl)c2)nc1C(=O)NS(=O)(=O)c1cc(OC)ccc1Cl [Example 130] | 90%
62 | Cc1cc(C(=O)NS(=O)(=O)c2ccc(Cl)s2)nn1-c1cc(Cl)ccc1Cl [Example 299] | 90%
63 | CCc1[nH]c(-c2cc(C)cc(C)c2)nc1C(=O)NS(=O)(=O)c1ccccc1C [Example 470] | 100%
64 | COc1ccc(Br)cc1S(=O)(=O)NC(=O)c1nc(-c2c(F)cccc2F)n(C)n1 [Example 327] | 90%
65 | Cc1cccc(Cl)c1S(=O)(=O)NC(=O)c1cc(C)n(-c2cccc(Cl)c2Cl)n1 [Example 306] | 100%
66 | Cc1cc(C(=O)NS(=O)(=O)c2ccccc2Br)nn1-c1cccc(Cl)c1Cl [Example 302] | 100%
67 | CCc1[nH]c(-c2cc(Cl)cc(Cl)c2)nc1C(=O)NS(=O)(=O)c1ccccc1OC [Example 137] | 90%
68 | COc1ccc(Cl)c(S(=O)(=O)NC(=O)c2nc(-c3cccc(Cl)c3)[nH]c2C)c1 [Example 619] | 100%
